Test results as given in patent US20030215462A1, “Use of UGT inhibitors to increase bioavailability” (priority 2001, published 2003).

How the values were obtained:
[1] = test system: T1, UGT enzymes of human liver microsomes; assay: Kinetic and Ki studies of inhibitors of 7-HFC glucuronidation in human liver microsomes; format: biochemical; conditions: 7-HFC 20-500 μM
T1 construct: percentage of control metabolism, 7-HFC glucuronidation; percentage of control metabolism, 7-HFC glucuronidation

[2] = test system: UGT enzymes of human liver microsomes; assay: Inhibition of raloxifene glucuronidation (G1, G2) in human liver microsomes; format: biochemical; conditions: raloxifene 50 μM; for % of control metabolism (SD, n = 3), raloxifene glucuronide G1 / % of control metabolism (SD, n = 3), raloxifene glucuronide G2: human liver microsomes 250 μg/ml, 15 min
From the text: Compounds were eluted using a binary solvent gradient system. […] Solvent B was methanol. […] Detection was at 280 nm.

[3] = test system: UGT enzymes of pooled human jejunum microsomes; assay: Inhibition of zidovudine glucuronidation in pooled human jejunum microsomes; format: biochemical; conditions: inhibitor 200 μM
Description: Increasing the microsomal protein concentration to 1 mg/ml and extending the incubation time to 60 min provided meaningful metabolite levels for inhibition studies.

[4] = test system: T2, UGT enzymes of human liver microsomes; assay: Inhibition of 2ME2 glucuronidation (MG1, MG2) in human liver microsomes; format: biochemical; conditions: liver 062101, 2ME2 50 μM
T2 construct: other: liver 062101
From the text: (§1) Compounds were eluted using a binary solvent gradient system where solvent A was dilute phosphoric acid (pH 3) and solvent B was 80:20 acetonitrile-methanol. […] Detection was at 280 nm.

[5] = test system: UGT enzymes of pooled human jejunum microsomes; assay: Inhibition of 2ME2 glucuronidation (MG1) in pooled human jejunum microsomes; format: biochemical; conditions: jejunum HJ61, 2ME2 50 μM
From the text: as §1

UGT1A1 [6] = target: T3, UGT1A1 (Homo sapiens, UniProt P22309); assay: in vitro
T3 sequence (P22309 26-533): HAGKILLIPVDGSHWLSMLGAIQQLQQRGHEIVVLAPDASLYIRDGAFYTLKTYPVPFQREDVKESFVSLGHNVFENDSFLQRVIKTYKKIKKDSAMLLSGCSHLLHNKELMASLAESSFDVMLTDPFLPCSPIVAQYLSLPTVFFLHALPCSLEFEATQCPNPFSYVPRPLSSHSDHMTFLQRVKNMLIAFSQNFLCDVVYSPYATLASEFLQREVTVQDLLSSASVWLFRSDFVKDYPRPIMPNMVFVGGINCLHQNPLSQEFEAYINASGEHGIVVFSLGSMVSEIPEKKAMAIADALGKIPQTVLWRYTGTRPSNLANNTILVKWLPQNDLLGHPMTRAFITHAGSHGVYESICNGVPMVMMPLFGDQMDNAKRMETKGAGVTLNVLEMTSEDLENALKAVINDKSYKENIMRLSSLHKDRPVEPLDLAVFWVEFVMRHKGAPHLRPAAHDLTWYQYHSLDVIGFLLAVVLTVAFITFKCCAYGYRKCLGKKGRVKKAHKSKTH
Description: (§2) Compounds were eluted using a binary solvent gradient system. Solvent A was water brought to pH 8 with NH4OH. Solvent B was methanol. Solvent flow rate was 1 ml/min and the column temperature was maintained at 50° C. Detection was at 280 nm. […] The system was then returned to the initial conditions and equilibrated for 3 min.

UGT1A3 = target: T4, UGT1A3 (Homo sapiens, UniProt P35503); assay: in vitro
T4 sequence (P35503 29-534): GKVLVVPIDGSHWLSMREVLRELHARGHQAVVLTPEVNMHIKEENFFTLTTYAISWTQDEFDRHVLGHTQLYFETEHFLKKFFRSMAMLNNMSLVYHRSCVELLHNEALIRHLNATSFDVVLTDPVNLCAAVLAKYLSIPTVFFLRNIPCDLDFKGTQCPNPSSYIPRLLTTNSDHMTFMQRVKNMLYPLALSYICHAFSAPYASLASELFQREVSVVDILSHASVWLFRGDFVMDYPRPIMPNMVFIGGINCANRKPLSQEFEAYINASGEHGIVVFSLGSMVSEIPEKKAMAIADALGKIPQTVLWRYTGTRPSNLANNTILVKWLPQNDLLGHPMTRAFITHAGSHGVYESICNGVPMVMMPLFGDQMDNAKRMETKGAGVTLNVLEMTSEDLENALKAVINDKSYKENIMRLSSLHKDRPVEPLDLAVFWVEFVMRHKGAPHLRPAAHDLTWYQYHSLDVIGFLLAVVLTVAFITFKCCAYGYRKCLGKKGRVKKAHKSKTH
Description: as §2

UGT1A9 = target: T5, UGT1A9 (Homo sapiens, UniProt O60656); assay: in vitro; conditions: pH 7.5, % of control metabolism
T5 sequence (O60656 26-530): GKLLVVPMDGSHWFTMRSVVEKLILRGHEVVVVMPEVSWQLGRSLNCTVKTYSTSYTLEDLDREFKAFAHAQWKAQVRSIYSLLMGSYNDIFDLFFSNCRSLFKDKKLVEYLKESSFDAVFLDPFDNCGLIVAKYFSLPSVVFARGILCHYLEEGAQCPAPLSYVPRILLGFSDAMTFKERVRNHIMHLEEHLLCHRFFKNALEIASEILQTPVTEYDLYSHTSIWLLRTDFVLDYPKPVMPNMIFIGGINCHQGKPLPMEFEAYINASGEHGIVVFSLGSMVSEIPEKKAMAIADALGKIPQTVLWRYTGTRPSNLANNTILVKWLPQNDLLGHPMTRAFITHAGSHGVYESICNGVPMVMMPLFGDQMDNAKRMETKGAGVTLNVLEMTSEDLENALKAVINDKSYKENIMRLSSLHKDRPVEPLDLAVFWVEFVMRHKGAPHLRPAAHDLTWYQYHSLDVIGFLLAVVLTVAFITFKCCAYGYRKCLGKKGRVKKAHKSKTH
Description: as §2

UGT1A10 [7] = target: T6, UGT1A10 (Homo sapiens, UniProt Q9HAW8); assay: in vitro; conditions: pH 7.5, % of control metabolism
T6 sequence (Q9HAW8 26-530): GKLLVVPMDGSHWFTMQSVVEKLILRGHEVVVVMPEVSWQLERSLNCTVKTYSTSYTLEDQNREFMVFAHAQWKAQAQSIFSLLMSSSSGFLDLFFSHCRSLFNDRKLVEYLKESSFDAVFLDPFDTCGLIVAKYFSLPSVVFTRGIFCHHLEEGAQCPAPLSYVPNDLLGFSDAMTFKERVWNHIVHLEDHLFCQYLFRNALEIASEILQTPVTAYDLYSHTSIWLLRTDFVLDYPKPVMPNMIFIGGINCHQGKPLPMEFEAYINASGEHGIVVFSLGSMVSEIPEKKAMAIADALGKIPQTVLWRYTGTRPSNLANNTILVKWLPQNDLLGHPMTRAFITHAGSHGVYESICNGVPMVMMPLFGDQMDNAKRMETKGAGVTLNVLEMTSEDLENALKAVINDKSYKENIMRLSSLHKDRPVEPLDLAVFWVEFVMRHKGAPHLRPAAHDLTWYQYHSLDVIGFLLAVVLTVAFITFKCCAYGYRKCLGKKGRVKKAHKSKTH
Description: as §2

UGT1A1 [8] = target: T3, UGT1A1; assay: Inhibition of raloxifene glucuronidation by recombinant UGT1A1 Supersomes; conditions: UGT1A1
Description: as §2

UGT1A10 [9] = target: T6, UGT1A10; assay: Inhibition of raloxifene glucuronidation by recombinant UGT1A10 Bacculosomes
Description: as §2

[10] = test system: T1, UGT enzymes of human liver microsomes; assay: Inhibition of 7-HFC glucuronidation in human liver microsomes; format: biochemical; conditions: inhibitor 500 μM; 7-HFC 50 μM, human liver microsomes 100 μg/ml, 15 min
[11] = cited from earlier work
[12] = pH 7.5, % of control metabolism, raloxifene G1
[13] = pH 7.5, % of control metabolism, raloxifene G2

**Q.** With O=C(O)Cc1ccccc1Nc1c(Cl)cccc1Cl [Diclofenac, reference compound] as the compound, how does the “Vmax of 7-HFC glucuronidation (fit of the experiment with this inhibitor)” value [1] read?
**A.** Its value is 64 ± 4 nmol/min/mg.

**Q.** What about the Km ([1]; read-out: Km of 7-HFC glucuronidation (fit of the experiment with this inhibitor)) of the same compound?
**A.** The Km was 87 ± 7 µM.

**Q.** What about the “% of control metabolism (SD, n = 3), raloxifene glucuronide G1” value ([2]; inhibitor 50 μM) of the same compound?
**A.** Its value is 65 (1) %.

**Q.** What about the “% of control metabolism (SD, n = 3), raloxifene glucuronide G1” value ([2]; inhibitor 100 μM) of the same compound?
**A.** The value was 50 (3) %.

**Q.** What about the “% of control metabolism (SD, n = 3), raloxifene glucuronide G1” value ([2]; inhibitor 500 μM) of the same compound?
**A.** The value was 6 (1) %.

**Q.** And the “% of control metabolism (SD, n = 3), raloxifene glucuronide G2” value ([2]; inhibitor 50 μM)?
**A.** Its value is 67 (1) %.

**Q.** What about the “% of control metabolism (SD, n = 3), raloxifene glucuronide G2” value ([2]; inhibitor 100 μM) of the same compound?
**A.** Its value is 53 (3) %.

**Q.** What about the “% of control metabolism (SD, n = 3), raloxifene glucuronide G2” value ([2]; inhibitor 500 μM) of the same compound?
**A.** The value was 6 (1) %.

**Q.** What about the “% of control metabolism, raloxifene G1” value ([2]; inhibitor 50 μM) of the same compound?
**A.** The value was 65 (1) %.

**Q.** And the “% of control metabolism, raloxifene G2” value ([2]; inhibitor 50 μM)?
**A.** Its value is 67 (1) %.

**Q.** And the “% of control metabolism, raloxifene G1” value ([2]; inhibitor 100 μM)?
**A.** Its value is 50 (3) %.

**Q.** And the “% of control metabolism, raloxifene G2” value ([2]; inhibitor 100 μM)?
**A.** Its value is 53 (3) %.

**Q.** What about the “residual metabolism (percentage of control), zidovudine” value [3] of the same compound?
**A.** The value was 18 (2) %.

**Q.** What about the “residual metabolism (% of control), 2ME2 MG1” value ([4]; inhibitor 50 μM) of the same compound?
**A.** The value was 70 (1) %.

**Q.** What about the “residual metabolism (% of control), 2ME2 MG2” value ([4]; inhibitor 50 μM) of the same compound?
**A.** The value was 60 (1) %.

**Q.** And the “residual metabolism (% of control), 2ME2 MG1” value ([4]; inhibitor 100 μM)?
**A.** Its value is 54 (1) %.

**Q.** And the “residual metabolism (% of control), 2ME2 MG2” value ([4]; inhibitor 100 μM)?
**A.** The value was 44 (3) %.

**Q.** And the “residual metabolism (% of control), 2ME2 MG1” value ([5]; inhibitor 50 μM)?
**A.** Its value is 100 (3) %.

**Q.** And the “residual metabolism (% of control), 2ME2 MG1” value ([5]; inhibitor 100 μM)?
**A.** The value was 97 (4) %.

**Q.** And the activity at 15 min, 50 µM (UGT1A1 [6]; [12])?
**A.** Its activity at 15 min, 50 µM is 66%.

**Q.** What about the activity at 15 min, 50 µM (UGT1A1 [6]; [13]) of the same compound?
**A.** The activity at 15 min, 50 µM was 73%.

**Q.** What about the activity at 15 min, 50 µM (UGT1A1 [6]; pH 7.5, Inhibition of raloxifene glucuronidation, G1, UGT1A1) of the same compound?
**A.** The activity at 15 min, 50 µM was 66%.

**Q.** What about the activity at 15 min, 50 µM (UGT1A1 [6]; pH 7.5, Inhibition of raloxifene glucuronidation, G2, UGT1A1) of the same compound?
**A.** The activity at 15 min, 50 µM was 73%.

**Q.** What about the activity at 15 min, 50 µM (UGT1A3; [12]) of the same compound?
**A.** The activity at 15 min, 50 µM was 74%.

**Q.** What about the activity at 15 min, 50 µM (UGT1A3; [13]) of the same compound?
**A.** The activity at 15 min, 50 µM was 75%.

**Q.** And the activity at 15 min, 50 µM (UGT1A3; pH 7.5, Inhibition of raloxifene glucuronidation, G1, UGT1A3)?
**A.** Its activity at 15 min, 50 µM is 74%.

**Q.** And the activity at 15 min, 50 µM (UGT1A3; pH 7.5, Inhibition of raloxifene glucuronidation, G2, UGT1A3)?
**A.** Its activity at 15 min, 50 µM is 75%.

**Q.** What about the activity at 15 min, 50 µM (UGT1A9; raloxifene G1) of the same compound?
**A.** Its activity at 15 min, 50 µM is 74%.

**Q.** What about the activity at 15 min, 50 µM (UGT1A9; raloxifene G2) of the same compound?
**A.** The activity at 15 min, 50 µM was 77%.

**Q.** And the activity at 15 min, 50 µM (UGT1A10 [7]; raloxifene G1)?
**A.** The activity at 15 min, 50 µM was 97%.

**Q.** And the activity at 15 min, 50 µM (UGT1A10 [7]; raloxifene G2)?
**A.** The activity at 15 min, 50 µM was 93%.

**Q.** And the “inhibition of raloxifene glucuronidation, in words” value (UGT1A1 [8])?
**A.** Its value is “poor inhibitors”.

**Q.** What about the “inhibition of raloxifene glucuronidation, in words” value (UGT1A10 [9]) of the same compound?
**A.** Its value is “poor inhibitors”.

**Q.** Which “% of control metabolism (SD, n = 3), 7-HFC glucuronidation” value [10] does the source give for CCCN(CCC)S(=O)(=O)c1ccc(C(=O)O)cc1 [Probenecid, reference compound] here?
**A.** The value was 91 (1) %.

**Q.** What about the “% of control metabolism (SD, n = 3), raloxifene glucuronide G1” value ([2]; inhibitor 500 μM) of the same compound?
**A.** Its value is 70 (4) %.

**Q.** What about the “% of control metabolism (SD, n = 3), raloxifene glucuronide G2” value ([2]; inhibitor 500 μM) of the same compound?
**A.** The value was 70 (1) %.

**Q.** What about the “increase in zidovudine levels on co-administration” value ([11]; AIDS patients and healthy volunteers) of the same compound?
**A.** The value was 2 fold.

**Q.** What about the “reduction in diflunisal metabolism to acyl- and phenol-glucuronides” value ([11]; coadministration with diflunisal) of the same compound?
**A.** Its value is 50%.
